Laboratory results reported in the CheMixHub ionic liquid set.

Assay: xn = mol fraction of the nth substance listed

C[N+](C)(CCCS(=O)(=O)O)C1CCCCC1.Cc1ccc(S(=O)(=O)[O-])cc1 + CO
viscosity [mPa·s], 101 kPa
Settings | 303.15 K | 308.15 K | 313.15 K | 318.15 K | 323.15 K | 328.15 K
x1 = 0.01863 | 0.9656 | 0.8903 | 0.8173 | 0.7622 | 0.7053 | 0.6527
x1 = 0.04828 | 2.131 | 1.956 | 1.779 | 1.61 | 1.487 | 1.37
x1 = 0.1023 | 7.675 | 6.646 | 5.931 | 5.247 | 4.648 | 4.072
x1 = 0.2332 | 82.39 | 66.75 | 52.34 | 42.16 | 34.08 | 28.69
x1 = 1 | 113700 | 56930 | 32650 | 17830 | 10190 | 6293

CS(C)=O + COCCCC[n+]1ccn(C)c1.C[C@@H](O)[C@H](N)C(=O)[O-]
100 kPa, x2 = 0
Settings | viscosity [mPa·s]
288.15 K | 2.47
293.15 K | 2.21
298.15 K | 1.99
303.15 K | 1.81
308.15 K | 1.65
313.15 K | 1.51
318.15 K | 1.39

CS(C)=O + COCCCC[n+]1ccn(C)c1.NCC(=O)[O-]
Settings | viscosity [mPa·s]
308.15 K, 100 kPa, x2 = 0 | 1.65

CCCC[n+]1ccn(C)c1.[Br-] + COCCO
viscosity [mPa·s], 100 kPa
Settings | 298.15 K | 303.15 K | 308.15 K | 313.15 K
x1 = 0.4 | – | – | 43.9 | 28
x1 = 0.5 | – | 101 | – | 40.3
x1 = 0.7002 | 350 | – | – | 75

COS(=O)(=O)[O-].Cn1cc[n+](C)c1 + COCCO
viscosity [mPa·s], 101 kPa
Settings | x1 = 0.0007603 | x1 = 0.001899 | x1 = 0.003034 | x1 = 0.004168 | x1 = 0.005298 | x1 = 0.006426
293.15 K | 2.01 | 2.03 | 2.05 | 2.07 | 2.09 | 2.11
303.15 K | 1.4 | 1.42 | 1.44 | 1.46 | 1.48 | 1.5
313.15 K | 0.97 | 0.99 | 1.01 | 1.03 | 1.05 | 1.07

CCCC[P+](CC)(CC)CC.Cc1ncc([N+](=O)[O-])[n-]1 + COCCOCCOCCOCCOC
100 kPa
Settings | viscosity [mPa·s]
278.15 K, x2 = 0.048 | 1540
283.15 K, x2 = 0.102 | 631
283.15 K, x2 = 0.401 | 99
283.15 K, x2 = 0.501 | 57
298.15 K, x2 = 0.102 | 208
298.15 K, x2 = 0.201 | 130
308.15 K, x2 = 0.048 | 159
313.15 K, x2 = 0.102 | 90

CCCn1cc[n+](C)c1C.O=[N+]([O-])c1cn[n-]c1 + COCCOCCOCCOCCOC
100 kPa
Settings | viscosity [mPa·s]
278.15 K, x2 = 0.399 | 252
283.15 K, x2 = 0.1 | 1670
283.15 K, x2 = 0.201 | 743
283.15 K, x2 = 0.499 | 88
288.15 K, x2 = 0.1 | 929
288.15 K, x2 = 0.201 | 449
298.15 K, x2 = 0.399 | 62
313.15 K, x2 = 0.201 | 76

CS(C)=O + COCCOCCn1cc[n+](CCC#N)c1.O=S(=O)([N-]S(=O)(=O)C(F)(F)F)C(F)(F)F
101.3 kPa, x2 = 0
Settings | electrical conductivity [S/m]
293.15 K | 0.000587
303.15 K | 0.000881
313.15 K | 0.00118
323.15 K | 0.00148

CCCC[N+](CCCC)(CCCC)CCCC.[Cl-] + CSCC[C@H](N)C(=O)O
101 kPa
Settings | electrical conductivity, x2 = 0.08333 [S/m] | electrical conductivity, x2 = 0.09091 [S/m] | electrical conductivity, x2 = 0.1 [S/m] | viscosity, x2 = 0.08333 [mPa·s] | viscosity, x2 = 0.09091 [mPa·s] | viscosity, x2 = 0.1 [mPa·s]
303.15 K | 0.0061 | 0.0165 | 0.0113 | 2200 | 2300 | 2400
313.15 K | 0.016 | 0.026 | 0.022 | 1400 | 1570 | 1560
323.15 K | 0.0259 | 0.0418 | 0.0313 | 415 | 530 | 480
333.15 K | 0.0749 | 0.0929 | 0.0837 | 221 | 295 | 290
343.15 K | 0.107 | 0.129 | 0.12 | 119 | 157 | 148
353.15 K | 0.14 | 0.17 | 0.15 | 70 | 94 | 87

CCCC[N+](CCCC)(CCCC)CCCC.[Cl-] + C[C@@H](O)[C@H](N)C(=O)O
101 kPa
Settings | electrical conductivity, x2 = 0.09091 [S/m] | electrical conductivity, x2 = 0.1 [S/m] | electrical conductivity, x2 = 0.1111 [S/m] | viscosity, x2 = 0.09091 [mPa·s] | viscosity, x2 = 0.1 [mPa·s] | viscosity, x2 = 0.1111 [mPa·s]
303.15 K | 0.0086 | 0.0049 | 0.0067 | 223 | 179 | 1020
313.15 K | 0.0157 | 0.0117 | 0.0135 | 131 | 104 | 630
323.15 K | 0.0279 | 0.0199 | 0.0236 | 73 | 68 | 322
333.15 K | 0.039 | 0.0311 | 0.036 | 46 | 43 | 186
343.15 K | 0.045 | 0.0402 | – | 34 | 31 | 109
353.15 K | 0.0583 | 0.0516 | 0.0569 | 24 | 24 | 63

CCCC[n+]1ccn(C)c1.[Br-] + C[C@@H](O)[C@H](N)C(=O)O + O
viscosity [mPa·s], 101.3 kPa
Settings | 293.15 K | 298.15 K | 303.15 K | 308.15 K | 313.15 K
x2 = 0, x1 = 0.0007203 | – | – | – | – | 0.674
x2 = 0.0003632, x1 = 0.00072 | 1.028 | 0.918 | 0.825 | 0.748 | 0.682
x2 = 0.0003679, x1 = 0.001439 | 1.053 | 0.943 | 0.85 | 0.773 | 0.707
x2 = 0.0007261, x1 = 0.0007198 | 1.034 | 0.923 | 0.829 | 0.751 | 0.685
x2 = 0.0007318, x1 = 0.001438 | 1.059 | 0.948 | 0.854 | 0.776 | 0.71
x2 = 0.001087, x1 = 0.0007195 | 1.038 | 0.927 | 0.834 | 0.755 | 0.689
x2 = 0.001097, x1 = 0.001438 | 1.064 | 0.952 | 0.859 | 0.78 | 0.714
x2 = 0.001451, x1 = 0.0007192 | 1.043 | 0.932 | 0.838 | 0.76 | 0.693
x2 = 0.001461, x1 = 0.001437 | 1.07 | 0.957 | 0.863 | 0.785 | 0.718
x2 = 0.001813, x1 = 0.000719 | 1.048 | 0.936 | 0.843 | 0.764 | 0.698
x2 = 0.001828, x1 = 0.001437 | 1.075 | 0.961 | 0.868 | 0.789 | 0.723
x2 = 0.002175, x1 = 0.0007187 | 1.053 | 0.941 | 0.847 | 0.769 | 0.702
x2 = 0.002191, x1 = 0.001436 | 1.079 | 0.966 | 0.872 | 0.794 | 0.727
x2 = 0.002537, x1 = 0.0007185 | 1.058 | 0.946 | 0.852 | 0.773 | 0.707
x2 = 0.002557, x1 = 0.001436 | 1.085 | 0.97 | 0.877 | 0.798 | 0.732

CCCCCCCCCCCC[N+](C)(C)Cc1ccccc1.[Cl-] + C[C@H](N)C(=O)O + O
electrical conductivity [S/m], 101 kPa
Settings | 293.15 K | 298.15 K | 303.15 K | 308.15 K
x2 = 0.0009017, x1 = 0.000273 | 0.0801 | 0.0901 | 0.101 | 0.112
x2 = 0.0009017, x1 = 0.0002923 | 0.0832 | 0.0935 | 0.104 | 0.117
x2 = 0.0009017, x1 = 0.00031 | 0.0859 | 0.0967 | 0.108 | 0.121
x2 = 0.0009017, x1 = 0.0003245 | 0.0882 | 0.0994 | 0.111 | 0.124
x2 = 0.0009018, x1 = 0.0001745 | 0.0636 | 0.0709 | 0.0786 | 0.0867
x2 = 0.0009018, x1 = 0.0002014 | 0.0686 | 0.0767 | 0.0852 | 0.0943
x2 = 0.0009018, x1 = 0.0002282 | 0.0731 | 0.0819 | 0.0911 | 0.101
x2 = 0.0009018, x1 = 0.0002515 | 0.0769 | 0.0862 | 0.096 | 0.107
x2 = 0.0009019, x1 = 5.732e-05 | 0.0227 | 0.0255 | 0.0283 | 0.0312
x2 = 0.0009019, x1 = 7.956e-05 | 0.0312 | 0.0349 | 0.0388 | 0.0427
x2 = 0.0009019, x1 = 0.0001004 | 0.0389 | 0.0437 | 0.0484 | 0.0533
x2 = 0.0009019, x1 = 0.0001231 | 0.0474 | 0.053 | 0.0588 | 0.0647
x2 = 0.0009019, x1 = 0.0001486 | 0.0565 | 0.0633 | 0.0701 | 0.077
x2 = 0.001773, x1 = 8.528e-05 | 0.033 | 0.037 | 0.041 | 0.0452
x2 = 0.001773, x1 = 0.0001054 | 0.0404 | 0.0453 | 0.0502 | 0.0553
x2 = 0.001773, x1 = 0.0001263 | 0.0481 | 0.0538 | 0.0597 | 0.0658
x2 = 0.001773, x1 = 0.00015 | 0.0564 | 0.063 | 0.0698 | 0.077
x2 = 0.001773, x1 = 0.000176 | 0.063 | 0.0702 | 0.0778 | 0.086
x2 = 0.001773, x1 = 0.0002016 | 0.0678 | 0.0756 | 0.084 | 0.0932
x2 = 0.001773, x1 = 0.0002266 | 0.0719 | 0.0805 | 0.0896 | 0.0995
x2 = 0.001773, x1 = 0.0002493 | 0.0756 | 0.0847 | 0.0946 | 0.105
x2 = 0.001773, x1 = 0.0002699 | 0.0789 | 0.0885 | 0.099 | –
x2 = 0.001773, x1 = 0.0002888 | 0.082 | 0.0924 | 0.103 | –
x2 = 0.001773, x1 = 0.0003053 | 0.0849 | 0.0956 | 0.107 | –
x2 = 0.001773, x1 = 0.0003178 | 0.0873 | 0.0979 | 0.11 | –
x2 = 0.001774, x1 = 6.278e-05 | 0.0246 | 0.0276 | 0.0306 | 0.0337

Cc1ccc(S(=O)(=O)O)cc1 + C[N+](C)(C)Cc1ccccc1.[Cl-]
101 kPa, x2 = 0.3
Settings | electrical conductivity [S/m] | viscosity [mPa·s]
292.97 K | – | 15200
298 K | – | 12900
302.95 K | – | 8733
307.99 K | – | 5078
308.2 K | 0.05721 | –
313.02 K | – | 2889
313.22 K | 0.08258 | –
317.95 K | – | 1701
318.31 K | 0.1275 | –
323.05 K | – | 1092
323.16 K | 0.187 | –
328.06 K | – | 791
328.17 K | 0.2562 | –
332.98 K | – | 452
333.27 K | 0.345 | –
